Several values for one entry are separate records, joined by “and”; a condition that tells them apart may be missing. Equal entries are not always repeated.
Legend:
Type in all cases: cell-based, human
[1] = test system: fibroblasts from patients with inherited defects of mitochondrial fat oxidation; assay: Propionylcarnitine production in all fat-oxidation-defective fibroblast cell lines (comparison in words); details: all VLCAD, MTP, LCHAD, SCAD cell lines; C5 versus C7; C15 versus C5 or C7
Protocol: (§1) Fibroblasts obtained from patients with inherited defects of mitochondrial fat oxidation were cultured in the presence of omega deuterated odd-carbon numbered fatty acids, as described in Roe, C. R., Sweetman, L., Roe, D. S., David, F., Brunengraber, H., “Effective Dietary Treatment of Cardiomyopathy & Rhabdomyolysis in Long-Chain Fat Oxidation Disorders using an Anaplerotic Odd-Chain Triglyceride,” J. Clin. Invest. 110 (2): 259-269 (2002).
(§2) The data in Table 1 represents testing of cultured fibroblasts derived from ten patients afflicted with Very-long-chain acyl-CoA dehydrogenase (VLCAD) deficiency (six patients with the severe cardiac form and four with the non-cardiac milder phenotype), two patients with Mitochondrial Trifunctional Protein (MTP) deficiency, five patients having L-3-hydroxy-acyl-CoA dehydrogenase (LCHAD) deficiency and three patients with Short-chain acyl-CoA dehydrogenase (SCAD) deficiency.

[2] = test system: fibroblasts from patients with VLCAD deficiency, non-cardiac milder phenotype; assay: Propionylcarnitine from oxidation of odd-carbon fatty acids in VLCAD (non-cardiac) fibroblasts; details: VLCAD non-cardiac fibroblasts, one line per patient, 72 hours incubation
Protocol: as §1, §2

[3] = test system: fibroblasts from patients with L-3-hydroxy-acyl-CoA dehydrogenase (LCHAD) deficiency; assay: Propionylcarnitine from oxidation of odd-carbon fatty acids in LCHAD fibroblasts; details: LCHAD fibroblasts, one line per patient, 72 hours incubation
Protocol: as §1, §2

[4] = test system: fibroblasts from patients with Mitochondrial Trifunctional Protein (MTP) deficiency; assay: Propionylcarnitine from oxidation of odd-carbon fatty acids in MTP fibroblasts; details: MTP fibroblasts, one line per patient, 72 hours incubation
Protocol: as §1, §2

[5] = test system: fibroblasts from MCAD heterozygote (carrier); assay: Fate of odd-carbon fatty acids in MCAD carrier fibroblasts; design: unit not given here
Protocol: as §1
Fibroblasts from four patients with MCAD deficiency and one heterozygote (carrier) indicate that odd-carbon fatty acids containing more than seven carbons can not be effectively used in that disease. […] That any C3 was produced is presumably due to overlapping

[6] = test system: fibroblasts from patients with Short-chain acyl-CoA dehydrogenase (SCAD) deficiency; assay: Propionylcarnitine from oxidation of odd-carbon fatty acids in SCAD fibroblasts; details: SCAD fibroblasts, one line per patient, 72 hours incubation
Protocol: as §1, §2

[7] = test system: control / normal fibroblasts; assay: Fate of odd-carbon fatty acids in control (normal) fibroblasts; design: *C3 acylcarnitine / *C5 acylcarnitine / *C7 acylcarnitine / *C9 acylcarnitine / *C11 acylcarnitine / *C13 acylcarnitine / *C15 acylcarnitine: unit not given here
Protocol: Fibroblasts obtained from patients with inherited defects of mitochondrial fat oxidation were cultured in the presence of omega deuterated odd-carbon numbered fatty acids, as described in Roe, C. R., Sweetman, L., Roe, D. S., David, F., Brunengraber, H., “Effective Dietary Treatment of Cardiomyopathy & Rhabdomyolysis in Long-Chain Fat Oxidation Disorders using an Anaplerotic Odd-Chain Triglyceride,” J. Clin. Invest. 110 (2): 259-269 (2002). […]

[8] = test system: MCAD-deficient fibroblasts; assay: Fate of odd-carbon fatty acids in MCAD-deficient fibroblasts; design: *C3 acylcarnitine / *C5 acylcarnitine / *C7 acylcarnitine / *C9 acylcarnitine / *C11 acylcarnitine / *C13 acylcarnitine / *C15 acylcarnitine: unit not given here; details: for *C3 acylcarnitine / *C5 acylcarnitine / *C7 acylcarnitine / *C9 acylcarnitine / *C11 acylcarnitine / *C13 acylcarnitine / *C15 acylcarnitine: MCAD fibroblasts, N 4
Protocol: as §1
Fibroblasts from four patients with MCAD deficiency and one heterozygote (carrier) indicate that odd-carbon fatty acids containing more than seven carbons can not be effectively used in that disease. […]

[9] = test system: fibroblasts from patients with Very-long-chain acyl-CoA dehydrogenase (VLCAD) deficiency, severe cardiac form; assay: Propionylcarnitine from oxidation of odd-carbon fatty acids in VLCAD (cardiac) fibroblasts; details: VLCAD cardiac fibroblasts, one line per patient, 72 hours incubation
Protocol: as §1, §2

## CCCCCCCCCCCCCCC(=O)O [C15, n-pentadecanoic acid]
[1]
  Quantity of propionylcarnitine produced, compared with the other odd-carbon fatty acids: less propionylcamitine
[2]
  Propionylcarnitine from oxidation of fatty acid: 16.4 nmol/mg Protein/72 hours and 19.2 nmol/mg Protein/72 hours and 36.0 nmol/mg Protein/72 hours and 11.5 nmol/mg Protein/72 hours
[3]
  Propionylcarnitine from oxidation of fatty acid: 34.6 nmol/mg Protein/72 hours and 15.1 nmol/mg Protein/72 hours and 15.9 nmol/mg Protein/72 hours and 6.9 nmol/mg Protein/72 hours and 13.9 nmol/mg Protein/72 hours
[4]
  Propionylcarnitine from oxidation of fatty acid: 31.4 nmol/mg Protein/72 hours and 46.5 nmol/mg Protein/72 hours
[5]
  *C3 acylcarnitine: 33.5
  *C5 acylcarnitine: 1.7
  *C7 acylcarnitine: 0.6
  *C9 acylcarnitine: 1.7
  *C11 acylcarnitine: 0.5
  *C13 acylcarnitine: 0.2
  *C15 acylcarnitine: 1.9
[6]
  Propionylcarnitine from oxidation of fatty acid: 56.7 nmol/mg Protein/72 hours and 30.3 nmol/mg Protein/72 hours and 37.6 nmol/mg Protein/72 hours
[7]; CONTROL MEAN, N = 4
  *C3 acylcarnitine: 46.8
  *C5 acylcarnitine: 2.8
  *C7 acylcarnitine: 0.8
  *C9 acylcarnitine: 2.2
  *C11 acylcarnitine: 0.9
  *C13 acylcarnitine: 0.7
  *C15 acylcarnitine: 3.8
[7]; NORMAL fibroblasts
  Propionylcarnitine from odd carbon precursor: 46.8 nmol/mg Protein/72 hours
[7]; normal cells, compared with C7 or C5
  Boosting the production of propionyl-CoA (in words): more effective in normal cells
[8]; Maximum
  *C3 acylcarnitine: 19.6
  *C5 acylcarnitine: 1.6
  *C7 acylcarnitine: 9.9
  *C9 acylcarnitine: 17.5
  *C11 acylcarnitine: 1.0
  *C13 acylcarnitine: 0.9
  *C15 acylcarnitine: 4.7
[8]; Mean
  *C3 acylcarnitine: 9.8
  *C5 acylcarnitine: 1.2
  *C7 acylcarnitine: 6.5
  *C9 acylcarnitine: 10.9
  *C11 acylcarnitine: 0.7
  *C13 acylcarnitine: 0.4
  *C15 acylcarnitine: 2.6
[8]; Minimum
  *C3 acylcarnitine: 3.1
  *C5 acylcarnitine: 0.5
  *C7 acylcarnitine: 3.5
  *C9 acylcarnitine: 4.3
  *C11 acylcarnitine: 0.3
  *C13 acylcarnitine: 0.0
  *C15 acylcarnitine: 1.0
[8]; MCAD-1 fibroblast cell line
  Propionylcarnitine from odd carbon precursor: 6.9 nmol/mg Protein/72 hours
[8]; MCAD-2 fibroblast cell line
  Propionylcarnitine from odd carbon precursor: 19.6 nmol/mg Protein/72 hours
[8]; four MCAD patients' fibroblasts
  Oxidation of the fatty acid in MCAD deficient fibroblasts (in words): a block in oxidation at C9 & C7
[9]
  Propionylcarnitine from oxidation of fatty acid: 11.7 nmol/mg Protein/72 hours and 5.3 nmol/mg Protein/72 hours and 21.6 nmol/mg Protein/72 hours and 8.0 nmol/mg Protein/72 hours and 6.6 nmol/mg Protein/72 hours and 9.9 nmol/mg Protein/72 hours
